#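 Abbreviation: GI50, concentration required for 50% inhibition of growth. TGI: concentration producing complete growth inhibition.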
# Key:
# Assay in all cases: DTP human tumour cell line panel, 384-well format
# A498 renal = system: A498 renal
# A549 NSCLC = system: A549 NSCLC
# ACHN renal = system: ACHN renal
# BT-549 breast = system: BT-549 breast
# CAKI-1 renal = system: CAKI-1 renal
# CCRF-CEM leukemia = system: CCRF-CEM leukemia
# COLO 205 colon = system: COLO 205 colon
# DU-145 prostate = system: DU-145 prostate
# EKVX NSCLC = system: EKVX NSCLC
# HCC-2998 colon = system: HCC-2998 colon
# HCT-116 colon = system: HCT-116 colon
# HL-60(TB) leukemia = system: HL-60(TB) leukemia
# HOP-62 NSCLC = system: HOP-62 NSCLC
# HOP-92 NSCLC = system: HOP-92 NSCLC
# HS 578T breast = system: HS 578T breast
# HT29 colon = system: HT29 colon
# IGROV1 ovarian = system: IGROV1 ovarian
# K-562 leukemia = system: K-562 leukemia
# KM12 colon = system: KM12 colon
# LOX IMVI melanoma = system: LOX IMVI melanoma
# M14 melanoma = system: M14 melanoma
# MALME-3M melanoma = system: MALME-3M melanoma
# MCF7 breast = system: MCF7 breast
# MDA-MB-231 breast = system: MDA-MB-231 breast
# MDA-MB-435 melanoma = system: MDA-MB-435 melanoma
# MDA-MB-468 breast = system: MDA-MB-468 breast
# MOLT-4 leukemia = system: MOLT-4 leukemia
# NCI-H226 lung = system: NCI-H226 lung
# NCI-H23 lung = system: NCI-H23 lung
# NCI-H322M lung = system: NCI-H322M lung
# NCI-H460 NSCLC = system: NCI-H460 NSCLC
# NCI-H522 lung = system: NCI-H522 lung
# NCI/ADR-RES ovarian = system: NCI/ADR-RES ovarian
# OVCAR-3 ovarian = system: OVCAR-3 ovarian
# OVCAR-4 ovarian = system: OVCAR-4 ovarian
# OVCAR-5 ovarian = system: OVCAR-5 ovarian
# OVCAR-8 ovarian = system: OVCAR-8 ovarian
# PC-3 prostate = system: PC-3 prostate
# RPMI-8226 leukemia = system: RPMI-8226 leukemia
# RXF 393 renal = system: RXF 393 renal
# SF-268 CNS = system: SF-268 CNS
# SF-295 CNS = system: SF-295 CNS
# SF-539 CNS = system: SF-539 CNS
# SK-MEL-2 melanoma = system: SK-MEL-2 melanoma
# SK-MEL-28 melanoma = system: SK-MEL-28 melanoma
# SK-MEL-5 melanoma = system: SK-MEL-5 melanoma
# SK-OV-3 ovarian = system: SK-OV-3 ovarian
# SN12C renal = system: SN12C renal
# SNB-19 CNS = system: SNB-19 CNS
# SNB-75 CNS = system: SNB-75 CNS
# SW-620 colon = system: SW-620 colon
# TK-10 renal = system: TK-10 renal
# U251 glioblastoma = system: U251 glioblastoma
# UACC-257 melanoma = system: UACC-257 melanoma
# UACC-62 melanoma = system: UACC-62 melanoma
# UO-31 renal = system: UO-31 renal
structure (smiles),measurement,setting,value
Cc1cc(-c2cnn3c(NCC4CC(C)(O)C4)cc(Oc4cccnc4)nc23)ccc1C(=O)NC1CC1 (configuration not stated),GI50,A498 renal,92.1 nM
same,TGI,A498 renal,> 100000 nM
same,GI50,A549 NSCLC,90.2 nM
same,TGI,A549 NSCLC,> 100000 nM
same,GI50,ACHN renal,906 nM
same,TGI,ACHN renal,> 100000 nM
same,GI50,BT-549 breast,139 nM
same,TGI,BT-549 breast,> 100000 nM
same,GI50,CAKI-1 renal,560 nM
same,TGI,CAKI-1 renal,94500 nM
same,GI50,CCRF-CEM leukemia,23.9 nM
same,TGI,CCRF-CEM leukemia,50.7 nM
same,GI50,COLO 205 colon,39.4 nM
same,TGI,COLO 205 colon,> 100000 nM
same,GI50,DU-145 prostate,68.9 nM
same,TGI,DU-145 prostate,> 100000 nM
same,GI50,EKVX NSCLC,1780 nM
same,TGI,EKVX NSCLC,> 100000 nM
same,GI50,HCC-2998 colon,5560 nM
same,TGI,HCC-2998 colon,> 100000 nM
same,GI50,HCT-116 colon,49 nM
same,TGI,HCT-116 colon,> 100000 nM
same,GI50,HL-60(TB) leukemia,29.3 nM
same,TGI,HL-60(TB) leukemia,63.6 nM
same,GI50,HOP-62 NSCLC,83.4 nM
same,TGI,HOP-62 NSCLC,> 100000 nM
same,GI50,HOP-92 NSCLC,4880 nM
same,TGI,HOP-92 NSCLC,> 100000 nM
same,GI50,HS 578T breast,324 nM
same,TGI,HS 578T breast,38400 nM
same,GI50,HT29 colon,2110 nM
same,TGI,HT29 colon,> 100000 nM
same,GI50,IGROV1 ovarian,1010 nM
same,TGI,IGROV1 ovarian,> 100000 nM
same,GI50,K-562 leukemia,818 nM
same,TGI,K-562 leukemia,> 100000 nM
same,GI50,KM12 colon,67.3 nM
same,TGI,KM12 colon,> 100000 nM
same,GI50,LOX IMVI melanoma,49.5 nM
same,TGI,LOX IMVI melanoma,> 100000 nM
same,GI50,M14 melanoma,245 nM
same,TGI,M14 melanoma,> 100000 nM
same,GI50,MALME-3M melanoma,1090 nM
same,TGI,MALME-3M melanoma,> 100000 nM
same,GI50,MCF7 breast,17200 nM
same,TGI,MCF7 breast,> 100000 nM
same,GI50,MDA-MB-231 breast,735 nM
same,TGI,MDA-MB-231 breast,> 100000 nM
same,GI50,MDA-MB-435 melanoma,6160 nM
same,TGI,MDA-MB-435 melanoma,> 100000 nM
same,GI50,MDA-MB-468 breast,352 nM
same,TGI,MDA-MB-468 breast,4670 nM
same,GI50,MOLT-4 leukemia,22.7 nM
same,TGI,MOLT-4 leukemia,43.1 nM
same,GI50,NCI-H226 lung,77300 nM
same,TGI,NCI-H226 lung,> 100000 nM
same,GI50,NCI-H23 lung,374 nM
same,TGI,NCI-H23 lung,> 100000 nM
same,GI50,NCI-H322M lung,4570 nM
same,TGI,NCI-H322M lung,21200 nM
same,GI50,NCI-H460 NSCLC,188 nM
same,TGI,NCI-H460 NSCLC,11900 nM
same,GI50,NCI-H522 lung,467 nM
same,TGI,NCI-H522 lung,33000 nM
same,GI50,NCI/ADR-RES ovarian,5900 nM
same,TGI,NCI/ADR-RES ovarian,> 100000 nM
same,GI50,OVCAR-3 ovarian,173 nM
same,TGI,OVCAR-3 ovarian,87900 nM
same,GI50,OVCAR-4 ovarian,5590 nM
same,TGI,OVCAR-4 ovarian,> 100000 nM
same,GI50,OVCAR-5 ovarian,1980 nM
same,TGI,OVCAR-5 ovarian,> 100000 nM
same,GI50,OVCAR-8 ovarian,80.4 nM
same,TGI,OVCAR-8 ovarian,> 100000 nM
same,GI50,PC-3 prostate,1840 nM
same,TGI,PC-3 prostate,> 100000 nM
same,GI50,RPMI-8226 leukemia,305 nM
same,TGI,RPMI-8226 leukemia,995 nM
same,GI50,RXF 393 renal,64.5 nM
same,TGI,RXF 393 renal,2980 nM
same,GI50,SF-268 CNS,2180 nM
same,TGI,SF-268 CNS,> 100000 nM
same,GI50,SF-295 CNS,1860 nM
same,TGI,SF-295 CNS,> 100000 nM
same,GI50,SF-539 CNS,45.5 nM
same,TGI,SF-539 CNS,> 100000 nM
same,GI50,SK-MEL-2 melanoma,431 nM
same,TGI,SK-MEL-2 melanoma,3540 nM
same,GI50,SK-MEL-28 melanoma,11300 nM
same,TGI,SK-MEL-28 melanoma,> 100000 nM
same,GI50,SK-MEL-5 melanoma,74.5 nM
same,TGI,SK-MEL-5 melanoma,> 100000 nM
same,GI50,SK-OV-3 ovarian,903 nM
same,TGI,SK-OV-3 ovarian,> 100000 nM
same,GI50,SN12C renal,1810 nM
same,TGI,SN12C renal,> 100000 nM
same,GI50,SNB-19 CNS,> 100000 nM
same,TGI,SNB-19 CNS,> 100000 nM
same,GI50,SNB-75 CNS,1910 nM
same,TGI,SNB-75 CNS,> 100000 nM
same,GI50,SW-620 colon,62.1 nM
same,TGI,SW-620 colon,> 100000 nM
same,GI50,TK-10 renal,442 nM
same,TGI,TK-10 renal,> 100000 nM
same,GI50,U251 glioblastoma,65 nM
same,TGI,U251 glioblastoma,> 100000 nM
same,GI50,UACC-257 melanoma,30700 nM
same,TGI,UACC-257 melanoma,> 100000 nM
same,GI50,UACC-62 melanoma,972 nM
same,TGI,UACC-62 melanoma,62100 nM
same,GI50,UO-31 renal,686 nM
same,TGI,UO-31 renal,> 100000 nM
